Test system: PC-12
Assay: Neuritogenic activity of compound in PC12 rat pheochromocytoma cells was evaluated at dose of 20 uM; Positive neurite initiation after 16 hour incubation
Assay type: functional

In the case of `C/C=C\NC(=O)C1NC(=O)[C@H](CC(N)=O)NC(=O)[C@@H](NC(=O)C(=O)[C@@H](C)CC)Cc2ccc(O)c(c2)-c2cccc3c2NC(=O)[C@@]3(O)[C@@H]1O` (stereo partly specified), the Activity is reported as 60%.

From ChEMBL document CHEMBL1147424, “TMC-95A, a reversible proteasome inhibitor, induces neurite outgrowth in PC12 cells” (2004)
